Measured values reported in patent publication US20210017180A1, “PYCLEN-BASED MACROCYCLIC LIGANDS, CHELATES THEREOF AND USES THEREOF” (CENTRE NATIONAL DE LA RECHERCHE SCIENTIFIQUE, priority 2018, published 2021).

Assay: Brightness B = Φ * εmax
Type: physicochemical
Conditions: versus chelate of unsubstituted ligand (Table 7)
Text: • “Brightness (B)” refers to the amount of radiation emitted by a chromophore or dye. In the case of one-photon absorption, B is defined as the product of the emission quantum yield (Φ) by the molar absorption coefficient (ε), i.e., B=ε·Φ, at a given excitation wavelength. In the case of two-photon absorption, B is defined as the product of the emission quantum yield (Φ) by the cross section (σ), i.e., […], at a given excitation wavelength. • “Carboxylate ester” refers to an ester of a molecule, said molecule comprising at least one carboxylic acid function (—COOH), wherein the ester is formed by esterification of at least one carboxylic acid function of the molecule. Preferred carboxylic esters are methyl esters. “Mono-ester”, “di-ester” and “tri-ester” respectively refers to esters wherein exactly one, two and three carboxylic acid functions have been esterified. • “Carboxylate salt” refers to a salt of a molecule, said molecule comprising at least one carboxylic acid function (—COOH), wherein the salt is formed by deprotonation of at least one carboxylic acid function of the molecule. Preferred carboxylic salts are potassium or sodium salts, more preferably potassium salts. […]

Row | Compound | increase in brightness of europium chelate on substitution of picolinate arms by chromophore
1 | COCCOCCOCCOc1ccc(C#Cc2cc(CN3CCN(CC(=O)[O-])Cc4cccc(n4)CN(Cc4cc(C#Cc5ccc(OCCOCCOCCOC)cc5)cc(C(=O)[O-])n4)CC3)nc(C(=O)[O-])c2)cc1.[K+].[K+].[K+] [Complex S1, potassium 6,6′-((9-(carboxylatomethyl)-3,6,9-triaza-1(2,6)-pyridinacyclodecaphane-3,6-diyl)bis(methylene)) bis(4-((4-(2-(2-(2-methoxyethoxy)ethoxy)ethoxy)phenyl)ethynyl) picolinate)] | about 4 fold
2 | COCCOCCOCCOc1ccc(C#Cc2cc(CN3CCN(CC(=O)[O-])CCN(Cc4cc(C#Cc5ccc(OCCOCCOCCOC)cc5)cc(C(=O)[O-])n4)Cc4cccc(n4)C3)nc(C(=O)[O-])c2)cc1.[K+].[K+].[K+] [Complex S4, potassium 6,6′-((6-(carboxylatomethyl)-3,6,9-triaza-1(2,6)-pyridinacyclodecaphane-3,9-diyl)bis(methylene)) bis(4-((4-(2-(2-(2-methoxyethoxy)ethoxy)ethoxy)phenyl)ethynyl) picolinate)] | about 3 fold
